From US8642597B2, “Pyrazole compounds for controlling invertebrate pests” (BASF SE, priority 2007, dated 2014)

Assays:
Type in all cases: in vivo
[1] = test system: Silverleaf Whitefly (bemisia argentifolii, adult); assay: Silverleaf whitefly (bemisia argentifolii, adult), cotton cotyledon dip test; details: 72 h, 3 days after treatment, in comparison with untreated controls
Protocol: (§1) The active compounds were formulated in 50:50 (vol:vol) acetone:water and 100 ppm Kinetica™ surfactant.
Selected cotton plants were grown to the cotyledon state (one plant per pot). The cotyledons were dipped into the test solution to provide complete coverage of the foliage and placed in a well-vented area to dry. Each pot with treated seedling was placed in a plastic cup and 10 to 12 whitefly adults (approximately 3-5 day old) were introduced. The insects were collected using an aspirator and an 0.6 cm, non-toxic Tygon® tubing (R-3603) connected to a barrier pipette tip. The tip, containing the collected insects, was then gently inserted into the soil containing the treated plant, allowing insects to crawl out of the tip to reach the foliage for feeding. The cups were covered with a reusable screened lid (150 micron mesh polyester screen PeCap from Tetko Inc). Test plants were maintained in the holding room at about 25° C. and 20-40% relative humidity for 3 days avoiding direct exposure to the fluorescent light (24 hour photoperiod) to prevent trapping of heat inside the cup. Mortality was assessed 3 days after treatment of the plants.

[2] = test system: Mediterranean Fruitfly (Ceratitis capitata); assay: Activity against Mediterranean fruitfly (Ceratitis capitata), insect diet microtiter plate test; details: 120 h, eggs treated with 2500 ppm, egg and larval mortality after 5 days
Protocol: The active compounds were formulated in 1:3 (vol:vol) DMSO:water.
For evaluating control of Mediterranean fruitfly the test unit consisted of microtiter plates containing an insect diet and 50 to 80 C. capitata eggs.
Different concentrations of formulated compounds were sprayed onto the insect diet at 5 μl, using a custom built micro atomizer, at two replications. After application, microtiter plates were incubated at 28±1° C. and 80±5% relative humidity for 5 days. Egg and larval mortality was then visually assessed.

Bean Aphid (Aphis fabae) = assay: Bean aphid (Aphis fabae), nasturtium plant dip test; details: 72 h, after 3 days, in comparison with untreated controls
Description: as §1
Nasturtium plants grown in Metro mix in the 1st leaf-pair stage (variety ‘Mixed Jewel’) were infested with approximately 2-30 laboratory-reared aphids by placing infested cut plants on top of the test plants. The cut plants were removed after 24 hr. Each plant was dipped into the test solution to provide complete coverage of the foliage, stem, protruding seed surface and surrounding cube surface and allowed to dry in the fume hood. The treated plants were kept at about 25° C. with continuous fluorescent light. Aphid mortality is determined after 3 days.

[3] = test system: Cotton Aphid (aphis gossypii, Mixed Life Stages); assay: Cotton aphid (aphis gossypii, mixed life stages), cotyledon dip test; details: 120 h, mortality counts after 5 days, in comparison with untreated controls
Description: as §1
Cotton plants at the cotyledon stage (one plant per pot) were infested by placing a heavily infested leaf from the main colony on top of each cotyledon. The aphids were allowed to transfer to the host plant overnight, and the leaf used to transfer the aphids was removed. The cotyledons were dipped in the test solution and allowed to dry. After 5 days, mortality counts were made.

[4] = test system: Green Peach Aphid (Myzus persicae, Mixed Life Stages); assay: Green peach aphid (Myzus persicae, mixed life stages), pepper leaf dip test; details: foliar, 120 h, after 5 days, in comparison with untreated controls
Description: as §1
Pepper plants in the 2nd leaf-pair stage (variety ‘California Wonder’) were infested with approximately 40 laboratory-reared aphids by placing infested leaf sections on top of the test plants. The leaf sections were removed after 24 hr. The leaves of the intact plants were dipped into gradient solutions of the test compound and allowed to dry. Test plants were maintained under fluorescent light (24 hour photoperiod) at about 25° C. and 20-40% relative humidity. Aphid mortality on the treated plants, relative to mortality on check plants, was determined after 5 days.

[5] = test system: Cowpea Aphid (aphis craccivora); assay: Cowpea aphid (aphis craccivora), spray on potted cowpea plants; details: population reduction assessed after 24, 72 and 120 hours, in comparison with untreated controls
Protocol: The active compounds were formulated in 50:50 (vol:vol) acetone:water. The test solution was prepared at the day of use.
Potted cowpea plants colonized with 100-150 aphids of various stages were sprayed after the pest population had been recorded. Population reduction was assessed after 24, 72, and 120 hours.

[6] = test system: Vetch Aphid (Megoura viciae); assay: Vetch aphid (Megoura viciae), bean leaf disk microtiterplate test; details: foliar, 144 h, concentration of the test solution 2500 mg/L, 6 days
Protocol: The active compounds were formulated in 1:3 (vol:vol) DMSO:water with different concentrations of formulated compounds.
Bean leaf disks were placed into microtiterplates filled with 0.8% agar-agar and 2.5 ppm OPUS™. The leaf disks were sprayed with 2.5 μl of the test solution and 5 to 8 adult aphids were placed into the microtiterplates which were then closed and kept at 23±1° C. and 50±5% relative humidity under fluorescent light for 6 days. Mortality was assessed on the basis of vital, reproduced aphids. Aphid mortality and fecundity was then visually assessed.

[7] = test system: Boll Weevil (Anthonomus grandis); assay: Boll weevil (Anthonomus grandis), insect diet microtiter plate test; details: 120 h, concentration of the test solution 2500 mg/L, egg and larval mortality after 5 days
Protocol: The compounds were formulated in 75:25 (vol:vol) water:DMSO.
For evaluating control of boll weevil (Anthonomus grandis) the test unit consisted of 24-well-microtiter plates containing an insect diet and 20-30 A. grandis eggs. Different concentrations of formulated compounds were sprayed onto the insect diet at 20 μl, using a custom built micro atomizer, at two replications. After application, the microtiter plates were incubated at 23±1° C. and 50±5% relative humidity for 5 days. Egg and larval mortality was then visually assessed.

[8] = test system: Southern Armyworm (spodoptera eridania, 2nd instar larvae); assay: Southern armyworm (spodoptera eridania, 2nd instar larvae), lima bean leaf dip test; details: foliar, 96 h, at 4 days, in comparison with untreated controls
Protocol: as §1
A pair of first true leaves of Sieva lima bean was dipped in the test solution and allowed to dry. The leaf was then placed in a plastic perforated zip enclosure bag and ten 2nd instar larvae were added. At 4 days, observations were made of mortality and reduced feeding.

| Compound | mortality at 300 ppm [1] [%] | mortality at 2500 ppm [2] [%] | mortality at 10 ppm (Bean Aphid (Aphis fabae)) [%] | mortality at 300 ppm [3] [%] | mortality at 300 ppm [4] [%] | mortality at 300 ppm [5] [%] | mortality at 2500 µg/mL [6] [%] | mortality at 2500 µg/mL [7] [%] | mortality at 300 ppm [8] [%] |
| --- | --- | --- | --- | --- | --- | --- | --- | --- | --- |
| Cc1nn(-c2ccccc2)cc1C(=O)Nc1cccnc1 [Compound 84] | ≥ 50 | 50 |  |  |  |  |  |  |  |
| CCCN(C(=O)c1cn(C)nc1C(F)(F)F)c1cccnc1 [Compound 129] |  |  | ≥ 90 |  |  |  |  |  |  |
| CCc1c(C(=O)Nc2cccnc2)cnn1-c1ccc(Cl)cc1 [Compound 143] |  |  | ≥ 90 | ≥ 75 | ≥ 50 | ≥ 75 | ≥ 80 | 100 |  |
| CN(C(=O)c1cnn(C(F)F)c1C(F)F)c1cccnc1 [Compound 189] |  |  |  | ≥ 75 | ≥ 50 | ≥ 75 | ≥ 80 | 100 | ≥ 50 |
| Cc1nn(C(F)F)cc1C(=O)N(C)c1cccnc1 [Compound 229] | ≥ 50 |  |  | ≥ 75 | ≥ 50 |  |  |  |  |
| Cn1ncc(C(=O)Nc2cccnc2)c1C1CC1 [Compound 89] | ≥ 50 |  |  | ≥ 75 | ≥ 50 | ≥ 75 | ≥ 80 |  |  |
| O=C(Nc1cccnc1)c1cn(CC(F)F)nc1C(F)(F)F [Compound 232] |  | 50 |  |  |  |  | ≥ 80 |  |  |
| Cn1ncc(C(=O)Nc2cccnc2)c1Cl [Compound 83] | ≥ 50 |  |  | ≥ 75 | ≥ 50 | ≥ 75 |  |  |  |
| O=C(Nc1cccnc1)c1cn[nH]c1-c1cccs1 [Compound 77] |  | 50 |  |  |  |  |  |  | ≥ 50 |
| Cc1c(C(=O)N(C)c2cccnc2)cnn1C(F)F [Compound 220] |  |  |  | ≥ 75 | ≥ 50 | ≥ 75 | ≥ 80 | 100 | ≥ 50 |
| Cc1c(C(=O)Nc2cccnc2)cnn1-c1ccc([N+](=O)[O-])cc1 [Compound 231] |  | 50 |  |  |  |  | ≥ 80 |  |  |
| CCn1cc(C(=O)Nc2cccnc2)c(C(F)F)n1 [Compound 181] |  | 50 |  | ≥ 75 | ≥ 50 | ≥ 75 | ≥ 80 |  |  |
| CCn1cc(C(=O)N(C)c2cccnc2)c(C(F)(F)F)n1 [Compound 183] |  | 50 |  | ≥ 75 | ≥ 50 | ≥ 75 | ≥ 80 |  |  |
| Cc1c(C(=O)Nc2cccnc2)cnn1-c1ccc(Cl)cc1 [Compound 142] |  |  | ≥ 90 | ≥ 75 | ≥ 50 | ≥ 75 | ≥ 80 |  |  |
| CC(=O)N(C(=O)c1cn(C)nc1C(F)(F)F)c1cccnc1 [Compound 134] | ≥ 50 |  |  | ≥ 75 | ≥ 50 | ≥ 75 | ≥ 80 |  |  |
| CN(C(=O)c1cn(CC(F)F)nc1C(F)(F)F)c1cccnc1 [Compound 234] |  | 50 |  |  |  |  | ≥ 80 | 100 |  |
| Cn1cc(C(=O)Nc2cccnc2)c(C(F)(F)F)n1 [Compound 13, 1-methyl-3-trifluoromethyl-1H-pyrazole-4-carboxylic acid pyridin-3-ylamide] |  |  | ≥ 90 |  |  |  |  | ≥ 50 |  |
| O=C(Nc1cccnc1)c1cnn(Cc2ccccc2)c1 [Compound 82] | ≥ 50 |  |  | ≥ 75 | ≥ 50 | ≥ 75 |  |  |  |
| CCN(C(=O)c1cn(C)nc1C(F)(F)F)c1cccnc1 [Compound 127] |  |  | ≥ 90 | ≥ 75 | ≥ 50 |  | ≥ 80 |  |  |
| CC(C)Cn1cc(C(=O)Nc2cccnc2)cn1 [Compound 98] |  |  |  | ≥ 75 | ≥ 50 | ≥ 75 | ≥ 80 |  | ≥ 50 |
| CN(C(=O)c1cnn(C(F)F)c1C(F)(F)F)c1cccnc1 [Compound 191] |  |  |  | ≥ 75 |  | ≥ 75 | ≥ 80 | 100 | ≥ 50 |
| CCc1c(C(=O)Nc2cccnc2)cnn1CC [Compound 184] |  | 50 |  | ≥ 75 | ≥ 50 | ≥ 75 | ≥ 80 |  |  |
| O=C(Nc1cccnc1)c1cnn(-c2cccc(Cl)c2)c1C(F)F [Compound 157] |  |  |  | ≥ 75 | ≥ 50 | ≥ 75 | ≥ 80 | 100 | ≥ 50 |
| Cn1ncc(C(=O)Nc2cccnc2)c1C(F)(F)F [Compound 109] | ≥ 50 |  |  | ≥ 75 | ≥ 50 | ≥ 75 | ≥ 80 | 100 |  |
| O=C(Nc1cccnc1)c1cnn(-c2ccccc2)c1Cl [Compound 123] |  |  | ≥ 90 | ≥ 75 | ≥ 50 | ≥ 75 | ≥ 80 |  |  |
| CCn1ncc(C(=O)N(C)c2cccnc2)c1C [Compound 180] | ≥ 50 |  |  | ≥ 75 | ≥ 50 | ≥ 75 |  |  |  |
| O=C(Nc1cccnc1)c1cn(-c2ccc(Cl)cc2)nc1C(F)(F)F [Compound 73] | ≥ 50 |  |  | ≥ 75 | ≥ 50 | ≥ 75 | ≥ 80 |  |  |
| CCCc1c(C(=O)Nc2cccnc2)cnn1-c1ccc(Cl)cc1 [Compound 79] |  | 50 |  |  | ≥ 50 | ≥ 75 |  |  | ≥ 50 |
| CCn1cc(C(=O)Nc2cccnc2)cn1 [Compound 102] | ≥ 50 |  |  | ≥ 75 | ≥ 50 | ≥ 75 | ≥ 80 | 100 |  |
| Cn1cc(C(=O)Nc2cccnc2)c(C(F)(F)F)n1 [Compound 100] | ≥ 50 | 50 |  |  |  |  | ≥ 80 |  |  |
